Reference: patent US20090275583A1, “ANTIVIRAL COMPOUNDS AND USE THEREOF” (Myriad Genetics, Incorporated, priority 2006, published 2009)
pEC50, pIC50: −log10 of the molar value.

These compounds were tested on HIV-1 laboratory strain, NL4-3 (assay: MT-4 cytoprotection assay). Conditions: Human immunodeficiency virus 1, NL43, MT4, 96 h; MT-4 cells, four days incubation, WST-1 readout; read-out: MT4 EC50.
Assay type: cell-based
Description: The HTLV-1 transformed T cell line, MT-4, is highly susceptible to HIV-1 infection. Anti-HIV-1 agents were evaluated in this target cell line by protection from the HIV-induced cytopathic effect. In this assay, viability of both HIV-1 and mock-infected cells was assessed in a […] assay that monitors the ability of metabolically-active cells to reduce the tetrazolium salt WST-1. Cytoprotection by antiviral compounds is indicated by the positive readout of increased WST-1 cleavage.
Briefly, exponentially growing MT-4 cells were mock-infected or batch-infected with the HIV-1 laboratory strain, NL4-3, at a multiplicity of infection of 0.0005. Following a two hour infection, the cells were washed to remove unbound virus and plated in the presence of increasing concentrations of compound. After four days incubation, cytoprotection in the infected cells and compound toxicity in mock-infected cells were analyzed using the WST-1 assay.
C=C(C)[C@@H]1CC[C@]2(C(=O)NCCc3cccc(C(=O)NCc4ccc(C(=O)OC)cn4)c3)CC[C@]3(C)C(CCC4[C@@]5(C)CCC(=O)C(C)(C)C5CC[C@]43C)C12 (stereo partly drawn) [Example 201] was tested, and the pEC50 was 7.81.
C=C(C)[C@@H]1CC[C@]2(C(=O)NCCc3cccc(C(=O)NCc4ccc(C(=O)NCc5cccnc5C(=O)OC)cc4)c3)CC[C@]3(C)C(CCC4[C@@]5(C)CC[C@H](O)C(C)(C)C5CC[C@]43C)C12 (stereo partly drawn) [Example 189] was tested, and the pEC50 was 7.60.
For C=C(C)[C@@H]1CC[C@]2(C(=O)NCCc3ccc(F)c(C(=O)NCc4ccc(C(=O)OC)cn4)c3)CC[C@]3(C)C(CCC4[C@@]5(C)CC[C@H](O)C(C)(C)C5CC[C@]43C)C12 (stereo partly drawn) [Example 261], the pEC50 was 8.05.
With C=C(C)[C@@H]1CC[C@]2(C(=O)NCc3cccc(C(=O)NCCC(=O)O)c3)CC[C@]3(C)C(CCC4[C@@]5(C)CC[C@H](O)C(C)(C)C5CC[C@]43C)C12 (stereo partly drawn) [Example 3] the pEC50 was 5.00.
Work on C=C(C)[C@@H]1CC[C@]2(C(=O)NCc3cccc(C(=O)NCCc4cccc(C(=O)O)c4)c3)CC[C@]3(C)C(CCC4[C@@]5(C)CC[C@H](O)C(C)(C)C5CC[C@]43C)C12 (stereo partly drawn) [Example 16] yielded a pEC50 of 6.68.
With C=C(C)[C@@H]1CC[C@]2(C(=O)NCc3ccc(C(=O)NCCNC(C)=O)cc3)CC[C@]3(C)C(CCC4[C@@]5(C)CC[C@H](O)C(C)(C)C5CC[C@]43C)C12 (stereo partly drawn) [Example 52] the pEC50 was 5.00.
C=C(C)[C@@H]1CC[C@]2(C(=O)NCc3ccc(C(=O)NCCNC(=O)OCc4ccccc4)cc3)CC[C@]3(C)C(CCC4[C@@]5(C)CC[C@H](O)C(C)(C)C5CC[C@]43C)C12 (stereo partly drawn) [Example 53] showed a pEC50 of 5.00.
For C=C(C)[C@@H]1CC[C@]2(C(=O)NCc3ccc(C(=O)NCCCCC(=O)O)cc3)CC[C@]3(C)C(CCC4[C@@]5(C)CC[C@H](O)C(C)(C)C5CC[C@]43C)C12 (stereo partly drawn) [Example 50], the pEC50 was 5.00.
C=C(C)[C@@H]1CC[C@]2(C(=O)NCc3ccc(C(=O)NCCC(=O)O)cc3)CC[C@]3(C)C(CCC4[C@@]5(C)CC[C@H](O)C(C)(C)C5CC[C@]43C)C12 (stereo partly drawn) [Example 49] showed a pEC50 of 5.00.
Compound C=C(C)[C@@H]1CC[C@]2(C(=O)NCc3ccc(C(=O)NCCCCCCC(=O)O)cc3)CC[C@]3(C)C(CCC4[C@@]5(C)CC[C@H](O)C(C)(C)C5CC[C@]43C)C12 (stereo partly drawn) [Example 51] has a pEC50 of 5.00.

What follows are compounds tested on HIV-1NL4-3 (assay: P4-MAGI assay). Conditions: Human immunodeficiency virus 1, 24 h, P4 cells, 24 hour incubation, β-galactosidase expression; read-out: P4-MAGI IC50.
Assay type: cell-based
Source text: P4 cells were used to test the effects of compounds on virus fusion activity. P4 cells are HIV-1 infectable CD4^+ HeLa cells that bear the bacterial lacZ gene under the control of a minimal HIV-1 LTR. Charneau, et. al., J. Mol. Biol. 241:651-662 (1994). When these cells are infected with HIV-1, β-galactosidase is expressed due to Tat activation of the viral LTR. In this assay, P4 cells were infected with the laboratory adapted strain HIV-1NL4-3 at a multiplicity of infection of 1 in the presence of DEAE-Dextran. Immediately after addition of virus to the cells, increasing concentrations of compound were added to the cells. […] The effect on cell viability (TC50, concentration of compound that inhibits growth by 50%) was determined in mock-infected cells with the WST-1 Cell Proliferation Reagent (Roche Diagnostics).
C=C(C)[C@@H]1CC[C@]2(C(=O)NCCc3cccc(C(=O)NCc4ccc(C(=O)OC)cn4)c3)CC[C@]3(C)C(CCC4[C@@]5(C)CCC(=O)C(C)(C)C5CC[C@]43C)C12 (stereo partly drawn) [Example 201] was tested, and the pIC50 was 7.54.
C=C(C)[C@@H]1CC[C@]2(C(=O)NCCc3cccc(C(=O)NCc4ccc(C(=O)NCc5cccnc5C(=O)OC)cc4)c3)CC[C@]3(C)C(CCC4[C@@]5(C)CC[C@H](O)C(C)(C)C5CC[C@]43C)C12 (stereo partly drawn) [Example 189] showed a pIC50 of 8.40.
Compound C=C(C)[C@@H]1CC[C@]2(C(=O)NCCc3ccc(F)c(C(=O)NCc4ccc(C(=O)OC)cn4)c3)CC[C@]3(C)C(CCC4[C@@]5(C)CC[C@H](O)C(C)(C)C5CC[C@]43C)C12 (stereo partly drawn) [Example 261] has a pIC50 of 7.84.
With C=C(C)[C@@H]1CC[C@]2(C(=O)NCCc3cccc(S(=O)(=O)NCc4cccc(C(=O)O)c4)c3)CC[C@]3(C)C(CCC4[C@@]5(C)CC[C@H](O)C(C)(C)C5CC[C@]43C)C12 (stereo partly drawn) [Example 249] the pIC50 was 6.84.
With C=C(C)[C@@H]1CC[C@]2(C(=O)NCCc3cccc(C(=O)NCc4ccc(OCCCN5CC(C)NC(C)C5)cc4)c3)CC[C@]3(C)C(CCC4[C@@]5(C)CC[C@H](O)C(C)(C)C5CC[C@]43C)C12 (stereo partly drawn) [Example 233] the pIC50 was 7.15.
C=C(C)[C@@H]1CC[C@]2(C(=O)NCc3cccc(C(=O)Nc4ccc(O)c(C(=O)O)c4)c3)CC[C@]3(C)C(CCC4[C@@]5(C)CC[C@H](O)C(C)(C)C5CC[C@]43C)C12 (stereo partly drawn) [Example 12] gave a pIC50 of 5.14.
In the case of C=C(C)[C@@H]1CC[C@]2(CC(=O)NCc3cccc(C(=O)NCc4cccc(C(=O)O)c4)c3)CC[C@]3(C)C(CCC4[C@@]5(C)CC[C@H](O)C(C)(C)C5CC[C@]43C)C12 (stereo partly drawn) [Example 142], the pIC50 was 5.47.
C=C(C)[C@@H]1CC[C@]2(C(=O)NCc3cccc(C(=O)NCc4cccc(Br)c4)c3)CC[C@]3(C)C(CCC4[C@@]5(C)CC[C@H](O)C(C)(C)C5CC[C@]43C)C12 (stereo partly drawn) [Example 30] showed a pIC50 of 6.39.
C=C(C)[C@@H]1CC[C@]2(C(=O)NCc3cccc(-c4cccc(C(=O)NCC(=O)OCC)c4)c3)CC[C@]3(C)C(CCC4[C@@]5(C)CC[C@H](O)C(C)(C)C5CC[C@]43C)C12 (stereo partly drawn) [Example 131] gave a pIC50 of 5.19.
C=C(C)[C@@H]1CC[C@]2(C(=O)NCCc3cccc(C(=O)N[C@@H](CCC(=O)OC)C(N)=O)c3)CC[C@]3(C)C(CCC4[C@@]5(C)CC[C@H](O)C(C)(C)C5CC[C@]43C)C12 (stereo partly drawn) [Example 77] was tested, and the pIC50 was 6.98.
With C=C(C)[C@@H]1CC[C@]2(C(=O)NCCc3ccccc3C(=O)NCCCCCCC(=O)O)CC[C@]3(C)C(CCC4[C@@]5(C)CC[C@H](O)C(C)(C)C5CC[C@]43C)C12 (stereo partly drawn) [Example 55] the pIC50 was 5.33.
C=C(C)[C@@H]1CC[C@]2(C(=O)NCc3cccc(N4CCN(Cc5cccc(C(=O)O)c5)CC4)c3)CC[C@]3(C)C(CCC4[C@@]5(C)CC[C@H](O)C(C)(C)C5CC[C@]43C)C12 (stereo partly drawn) [Example 118] was tested, and the pIC50 was 6.34.
Compound C=C(C)[C@@H]1CC[C@]2(C(=O)NCC(C)c3cccc(C(=O)NCc4cccc(C(=O)O)c4C)c3)CC[C@]3(C)C(CCC4[C@@]5(C)CC[C@H](O)C(C)(C)C5CC[C@]43C)C12 (stereo partly drawn) [Example 83] has a pIC50 of 6.57.
Work on C=C(C)[C@@H]1CC[C@]2(C(=O)NCc3ccc(C(=O)OC)o3)CC[C@]3(C)C(CCC4[C@@]5(C)CC[C@H](O)C(C)(C)C5CC[C@]43C)C12 (stereo partly drawn) [Example 87] yielded a pIC50 of 5.85.
Work on CC(O)(CO)[C@@H]1CC[C@]2(C(=O)NCc3cccc(C(=O)NCCCCC(=O)O)c3)CC[C@]3(C)C(CCC4[C@@]5(C)CC[C@H](O)C(C)(C)C5CC[C@]43C)C12 (single isomer, unassigned) [Example 139] yielded a pIC50 of 5.82.
With C=C(C)[C@@H]1CC[C@]2(C(=O)NCCc3cccc(C(=O)NCC4CCCN4)c3)CC[C@]3(C)C(CCC4[C@@]5(C)CC[C@H](O)C(C)(C)C5CC[C@]43C)C12 (stereo partly drawn) [Example 204] the pIC50 was 5.71.
In the case of C=C(C)[C@@H]1CC[C@]2(C(=O)NCc3ccc(C(=O)NCc4ccc(C(=O)OC)o4)o3)CC[C@]3(C)C(CCC4[C@@]5(C)CC[C@H](O)C(C)(C)C5CC[C@]43C)C12 (stereo partly drawn) [Example 89], the pIC50 was 5.64.
In the case of C=C(C)[C@@H]1CC[C@]2(C(=O)NCc3cccc(C(=O)NCc4ccc(OCCC(=O)O)c(C(=O)O)c4)c3)CC[C@]3(C)C(CCC4[C@@]5(C)CC[C@H](O)C(C)(C)C5CC[C@]43C)C12 (stereo partly drawn) [Example 119], the pIC50 was 5.96.
Work on C=C(C)[C@@H]1CC[C@]2(C(=O)NCc3ccc(F)c(C(=O)NCc4cccc(C(=O)OC)c4)c3)CC[C@]3(C)C(CCC4[C@@]5(C)CC[C@H](O)C(C)(C)C5CC[C@]43C)C12 (stereo partly drawn) [Example 110] yielded a pIC50 of 6.07.
Work on C=C(C)[C@@H]1CC[C@]2(C(=O)NCCc3cccc(C(=O)N4CCC(c5ccccc5)CC4)c3)CC[C@]3(C)C(CCC4[C@@]5(C)CC[C@H](O)C(C)(C)C5CC[C@]43C)C12 (stereo partly drawn) [Example 205] yielded a pIC50 of 6.00.
For C=C(C)[C@@H]1CC[C@]2(C(=O)NCc3ccc(F)c(C(=O)NCCc4ccc(C(=O)OC)cc4)c3)CC[C@]3(C)C(CCC4[C@@]5(C)CC[C@H](O)C(C)(C)C5CC[C@]43C)C12 (stereo partly drawn) [Example 104], the pIC50 was 6.46.
Work on C=C(C)[C@@H]1CC[C@]2(C(=O)NCc3cccc(-c4cccc(C(=O)N[C@@H](CC(C)C)[C@@H](O)CC(=O)O)c4)c3)CC[C@]3(C)C(CCC4[C@@]5(C)CC[C@H](O)C(C)(C)C5CC[C@]43C)C12 (stereo partly drawn) [Example 129] yielded a pIC50 of 5.44.
Work on C=C(C)[C@@H]1CC[C@]2(C(=O)NCc3cc(C(=O)NCCc4ccc(S(N)(=O)=O)cc4)ccc3F)CC[C@]3(C)C(CCC4[C@@]5(C)CC[C@H](O)C(C)(C)C5CC[C@]43C)C12 (stereo partly drawn) [Example 259] yielded a pIC50 of 6.76.
CC(O)(CN1CCCC1)[C@@H]1CC[C@]2(C(=O)NCc3cccc(C(=O)NCCCCC(=O)O)c3)CC[C@]3(C)C(CCC4[C@@]5(C)CC[C@H](O)C(C)(C)C5CC[C@]43C)C12 (stereo partly drawn) [Example 138] showed a pIC50 of 6.26.
C=C(C)[C@@H]1CC[C@]2(C(=O)NCc3cccc(-c4noc(Cc5ccc(C#N)cc5)n4)c3)CC[C@]3(C)C(CCC4[C@@]5(C)CC[C@H](O)C(C)(C)C5CC[C@]43C)C12 (stereo partly drawn) [Example 276] showed a pIC50 of 5.00.
For C=C(C)[C@@H]1CC[C@]2(C(=O)N[C@@H](Cc3ccc(OCCCCC(=O)O)cc3)C(=O)O)CC[C@]3(C)C(CCC4[C@@]5(C)CC[C@H](O)C(C)(C)C5CC[C@]43C)C12 (stereo partly drawn) [Example 115], the pIC50 was 5.00.
For C=C(C)[C@@H]1CC[C@]2(C(=O)NCCc3cccc(C(=O)NCc4ccc(OCCCN5CCNCC5)cc4)c3)CC[C@]3(C)C(CCC4[C@@]5(C)CC[C@H](O)C(C)(C)C5CC[C@]43C)C12 (stereo partly drawn) [Example 238], the pIC50 was 6.17.
For C=C(C)[C@@H]1CC[C@]2(C(=O)N[C@@H](Cc3ccc(OCCN4CCOC4=O)cc3)C(=O)O)CC[C@]3(C)C(CCC4[C@@]5(C)CC[C@H](O)C(C)(C)C5CC[C@]43C)C12 (stereo partly drawn) [Example 116], the pIC50 was 6.75.
C=C(C)[C@@H]1CC[C@]2(C(=O)NCCc3cccc(OCCCCC(=O)O)c3)CC[C@]3(C)C(CCC4[C@@]5(C)CC[C@H](O)C(C)(C)C5CC[C@]43C)C12 (stereo partly drawn) [Example 113] showed a pIC50 of 6.14.
C=C(C)[C@@H]1CC[C@]2(C(=O)NCCc3ccc(OCCCCC(=O)O)cc3)CC[C@]3(C)C(CCC4[C@@]5(C)CC[C@H](O)C(C)(C)C5CC[C@]43C)C12 (stereo partly drawn) [Example 112] gave a pIC50 of 6.50.
For C=C(C)[C@@H]1CC[C@]2(C(=O)NCCc3cc(C(=O)NCc4ccc(C(=O)OC)cn4)ccc3F)CC[C@]3(C)C(CCC4[C@@]5(C)CC[C@H](O)C(C)(C)C5CC[C@]43C)C12 (stereo partly drawn) [Example 260], the pIC50 was 6.82.
C=C(C)[C@@H]1CC[C@]2(C(=O)NCc3cccc(C(=O)NCc4cccc(C(=O)O)c4C)c3C)CC[C@]3(C)C(CCC4[C@@]5(C)CC[C@H](O)C(C)(C)C5CC[C@]43C)C12 (stereo partly drawn) [Example 81] gave a pIC50 of 5.21.
